Here are results for four compounds from patent US20260027179A1, “ANTI-SYNUCLEINOPATHY PEPTIDE AND METHODS TO TREAT NEURODEGENERATIVE DISEASES” (University of British Columbia, priority 2021, published 2026).

Peptide text beside a SMILES is read from it. * marks the point of attachment. Cbz = O=C(OCc1ccccc1)*

One experiment addresses T1, endogenous α-synuclein (Rattus norvegicus, UniProt P37377).
T1 construct: endogenous in cells; host or cells: primary rat cortical neurons (14 DIV) and primary rat ventral midbrain neurons (3 DIV)
Put plainly: Knockdown of endogenous α-synuclein in primary cortical neuron cultures, immunoblot. In kind it is cell-based. On the procedure:
Primary rat neuron cultures were prepared from embryos of pregnant Sprague-Dawley rats (E18). The experimental protocol was approved by the University of British Columbia Animal Care Committee. Briefly, the cortical tissue or ventral midbrain tissue was isolated into ice cold HBSS (Invitrogen, 14170-112) and then digested with 0.25% trypsin-EDTA at 37° C. for 30 min. After washing with warm DMEM (supplemented with 10% FBS) three times, neurons were suspended in neuron culture media and dissociated by trituration using varying sizes of pipettes. Neurons were then centrifuged, and the pellet was re-suspended in culture media, washed twice with culture media, and plated on the poly-D-lysine-coated plates. Neuron culture was maintained in the 37° C. incubator with […] and 5% CO2. The morning after culturing, 2/3 of the neuron culture media was replaced with fresh neuron culture media. Media was then replaced every 3-4 days. Primary rat cortical neuron culture was used 14 days in vitro (DIV) and primary rat ventral midbrain neuron culture was used 3 DIV.
Tat-βsyn-degron and Tat-βsyn peptides were first dissolved in sterile water as a 25 mM stock solution and then diluted directly in the neurobasal culture media to make the desired working concentration. 20 mM MPP+iodide stock solution was made freshly each time and diluted in the neurobasal culture media directly to make the desired working concentration. For 48 hrs treatment, neuron culture media containing MPP+ and peptides were replaced every 24 hrs.
(§1) Brain tissues or cultured cells were lysed on ice in the lysis buffer and then the solution was centrifuged at 14,000 rpm for 10 min at 4° C. Next, the supernatant was collected and protein concentrations were determined using a BCA protein assay kit (Thermo Scientific, 23227). Equal amount of protein samples was mixed with 4× sample buffer, boiled at 100° C. for 5 min, and separated on 10% sodium dodecyl sulphate-polyacrylamide gel electrophoresis (SDS-PAGE). Proteins were then transferred to Immobilon-PTM polyvinylidene fluoride (PVDF) membranes (Bio-Rad, 162-0177). The membranes were blocked with 5% non-fat milk in Tris-buffered saline containing 0.1% Tween-20 (TBST) for 1 hr at room temperature, and then incubated overnight at 4° C. with primary antibody. After washing 3×5 min in TBST, membranes were incubated with horseradish peroxidase-conjugated secondary antibody for 1 hr at room temperature. After another three washes with TBST, protein was visualized in the Bio-Rad Imager using ECL western blotting substrate (Pierce, 32016). The band density of each protein was quantified by the Bio-Rad Quantity One software and the relative optical density was analyzed relative to the loading control β-actin on the same membrane.

For experiment [1], the target named is T2, purified recombinant human α-synuclein (Homo sapiens, UniProt P37840).
T2 construct: His (histidine tag) (N); purchased Sigma S7820-500UG
Put plainly: Biacore peptide-protein binding assay. Conditions: 0.20-12.50 μM peptide, report point 20 seconds into dissociation. On the procedure: Biacore experiments were performed using a Biacore 3000 instrument (GE Healthcare Biosciences, Upsala, Sweden) and HBS running buffer, pH 7.4, containing 10 mM HEPES, 150 mM NaCl, 3 mM EDTA, and 0.005% surfactant P20. A research-grade CM5 sensor chip was activated with a mixture containing equal molar amounts of EDC (N-ethyl-N′-(dimethylaminopropyl) carbodiide and NHS (N-hydroxysuccinimide). Purified recombinant human α-synuclein (N-terminal histidine tagged, Sigma, S7820-500UG), diluted in sodium acetate pH 3.1, was then injected and covalently coupled to a flow cell of the sensor chip surface by amide bonding. Residual unreacted sites were blocked with ethanolamine. A reference surface, to account for non-specific binding, was similarly generated by activating and blocking an adjacent flow cell. Approximately 1500 resonance units (RU), equivalent to a surface concentration of 1500 pg/mm^2 of α-synuclein, was immobilized.
To ascertain the binding interaction between α-synuclein knockdown peptides and α-synuclein, synthetic Tat-βsyn-degron peptide or control tat peptide was serially diluted and sequentially injected over the active surface containing immobilized α-synuclein and the reference surface for 3 minutes at a flow rate of 30 μl/minute. The peptides were then allowed to dissociate for 3 minutes during which time HBS running buffer was injected. The resultant sensorgrams were double-referenced by subtracting out the binding on the reference surface and the response from the HBS blank buffer control. Binding response report points were collected 20 seconds into the dissociation phase of the interaction at time 200 seconds, which represents a stable binding response and excludes bulk refractive index changes and nonspecific binding.

The test system of the next experiment is dopaminergic neurons. Put plainly: MPTP mouse model, dopaminergic neuronal damage (TH immunoblotting, TH immunohistochemistry). Conditions: peptide 6 μmol/kg i.p. twice a day for 12 days. In kind it is in vivo. The protocol:
C57BL/6 mice were i.p. injected with 30 mg/kg parkinsonian toxin MPTP (or saline as control), once per day for 5 consecutive days, to induce dopaminergic neuron damage. The effects of MPTP administration on mouse rotarod performance and damage to dopaminergic neurons were then analyzed 1 week after the last injection of MPTP. To determine the effect of α-synuclein knockdown in protecting dopaminergic neurons against MPTP, the Tat-βsyn-degron peptide or its control Tat-βsyn (6 μmol/kg; i.p.) was used in some animals twice a day for 12 days, beginning the first day of MPTP injection. […] The striatum is a region that receives dopaminergic neuronal projections from the substantia nigra and is also deeply affected in PD. Consistent with the specific neurotoxic effects of MPTP on dopaminergic neurons, in mice receiving MPTP injection alone there was a significant loss of protein TH in both dopaminergic neurons in the substantia nigra-containing ventral midbrain (FIGS. 6a and 6c) and dopaminergic neuronal terminals in the striatum (FIGS. 6d and 6f). […] As expected, the specific knockdown of α-synuclein by Tat-βsyn-degron protected against MPTP-induced dopaminergic neuronal injury (FIGS. 6c and 6f).
(§2) C57BL/6 mice (20-25 g) received intraperitoneal (i.p.) injection of 30 mg/kg parkinsonian toxin MPTP hydrochloride once a day for 5 days to induce dopaminergic neuron death in the substantia nigra, while the control mice received equal volumes of saline injection. 6 μmol/kg Tat-βsyn-degron peptide or control Tat-βsyn peptide was i.p. injected into the MPTP-treated mice every 12 hrs from the first day of MPTP injection until 7 days after the last injection of MPTP. All groups of mice then underwent a rotarod test before they were sacrificed.
as §1
C57BL/6 mice were anesthetized with 1.5 g/kg urethane (Sigma, U2500) and then perfused with 0.9% saline and 4% paraformaldehyde. Brains were removed and fixed in 4% paraformaldehyde for 24 hrs before being transferred to 30% sucrose/PBS solution for cryoprotection. The brains were then sectioned into 30 μm slices using a Leica cryostat. After blocking and permeabilization using a PBS solution containing 1% BSA and 0.2% Triton X-100 for 30 min at room temperature, the brain slices were incubated with anti-TH antibody (1:800 dilution) for 3 days at 4° C. Finally, the TH-positive neurons in the substantia nigra and TH-positive neuronal terminals in the striatum were stained using the anti-mouse Ig HRP detection kit (BD Transduction Laboratories, 551011) according to manufacturer's instruction, and visualized under Zeiss Axio Observer D1 microscope. […]

The next experiment concerns C57BL/6 mice. Put plainly: MPTP mouse model, rotarod test. In kind it is in vivo. Conditions: peptide 6 μmol/kg i.p. twice a day for 12 days, vs MPTP group. On the procedure:
as §2
The rotarod test was performed as previously described (Heldermon, C. D. et al., PloS one 2, e772, doi:10.1371/journal.pone.0000772 (2007)), with modifications. Briefly, 6 days after the last MPTP injection, all mice received 4 rounds of training on the rotarod (Stoelting Co.). In the first two rounds of training, the rotarod was maintained at constant speed of 20 rpm for 3 min. In the second two rounds of training, the rotarod reversed rotation direction every 3 turns at the constant speed of 20 rpm for 3 min. […] Mice were tested 10 times at 20 min intervals, and the time that they remained on the rotarod during each test was recorded. […] The motor performance of the mouse was expressed as the latency to fall off the rotarod.

In the case of `CC(C)C[C@@H](C=O)NC(=O)[C@H](CC(C)C)NC(=O)[C@H](CC(C)C)NC(=O)OCc1ccccc1` [MG132, reference compound] (Cbz-Leu-Leu-Leu-aldehyde), the “effect on Tat-βsyn-degron induced knockdown of α-synuclein” value at endogenous α-synuclein (10 μM MG132 + 50 μM Tat-βsyn-degron, 24 hrs) is given as “prevented Tat-βsyn-degron induced knockdown of α-synuclein”. With “YGRKKRRQRRRGVLYVGSKTRRRRG [Tat-βsynN-degron]”, in experiment [1], the “binding response to immobilized α-synuclein” value is “robust and similar binding”. Still for that read-out and setting: the entry for “YGRKKRRQRRR [Tat peptide, reference compound]” is “little binding”.

In the case of “YGRKKRRQRRRRTKSGVYLVG [Tat-βsyn, control peptide lacking the proteasomal targeting signal, reference compound]”, the “endogenous α-synuclein protein levels” value with endogenous α-synuclein (bath application 24 hrs, 5-50 μM (control 50 μM), cortical neuron cultures) was “had no effect”. In the experiment with dopaminergic neurons, the “MPTP-induced dopaminergic neuronal damage (overall, FIG. 6 and FIG. 7a-d)” value is listed as “small, non-significant decrease”. The “MPTP-induced motor deficits (latency to fall off the rotarod)” value in the experiment on C57BL/6 mice is “significantly reduced”.
